Data taken from PMC11614538, “The proline-rich antimicrobial peptide B7-005: low bacterial resistance, safe for human cells and effective in zebrafish embryo bacteraemia model” (Open Biology, 2024).
Like-named read-outs stand apart in the source and are kept apart here. Residues, ends and D or L forms follow the SMILES beside them.

Tests used:
a human cell line = settings: ref [20]; cited from earlier work
From the text: In a previous work, we systematically modified Bac7(1-16), an active N-terminal fragment of the natural PrAMP full-length Bac7 [19], to identify the amino acid residues essential for inhibiting protein synthesis, with the goal to discover new derivatives with improved antimicrobial activity. […] B7-005 ...

[1] = test system: osteosarcoma cell line MG-63; settings: cited from earlier work
From the text: In this study, the response of cells to B7-005 varied according to the cell type. The tumoral MEC-1 cells were the most sensitive to the cytotoxic effects of the peptide, displaying even higher sensitivity to B7-005 than observed in a previous study. However, we note that in the previous study, the peptides were generated by SPOT synthesis and therefore were of lower-grade purification, which likely explains the differences observed with our study. […] These cells were the only non-immortalized or tumor ...

HaCaT cells = test: Cell viability MTT, HaCaT; type: cell-based, human; settings: 24 h, DMEM, n ≥ 9
Procedure: Chronic lymphocytic leukaemia-derived MEC-1 cells were cultured in suspension using complete RPMI (EuroClone), supplemented with 100 U ml^−1 penicillin (Sigma), 100 μg ml^−1 streptomycin (Sigma), 2 mM L-glutamine and 10% (v/v) foetal bovine serum (FBS, EuroClone). A549 human lung carcinoma epithelial cells and immortalized human keratinocytes (HaCaT) were grown in adhesion in complete high glucose Dulbecco’s MEM (DMEM, EuroClone) supplemented with 100 U ml^−1 penicillin (Sigma), […] streptomycin (Sigma), 2 mM L-glutamine and 10% (v/v) of FBS. […] All cell lines were counted in a Bürker chamber and diluted to the desired working concentrations.
Cell viability was evaluated by tetrazolium salt (MTT, or MTS for HUVECs only) tests. […] The next day, absorbance was measured at 570 nm using a Nanoquant Infinite-M200Pro plate reader (Tecan, Switzerland).
HUVECs, 7500 cells per well, were seeded in HESFM with 10% FBS in a 96-well flat-bottomed microtitre plate (EuroClone SpA, Italy). […] The plate was then incubated for 2 h at 37°C in a humidified 5% CO2 atmosphere, and the absorbance was measured at 490 nm, using a spectrophotometer (PowerWaveX, Bio-Tek Instruments). The cytotoxicity was calculated by comparing the absorbance of peptide-treated samples with that of the untreated control and expressed in percentage of vitality. […]

For `CC[C@H](C)[C@H](NC(=O)[C@H](CCCNC(=N)N)NC(=O)[C@@H](N)Cc1c[nH]c2ccccc12)C(=O)N[C@@H](CCCNC(=N)N)C(=O)N[C@@H](CCCNC(=N)N)C(=O)N[C@@H](CCCNC(=N)N)C(=O)N[C@@H](Cc1c[nH]c2ccccc12)C(=O)N1CCC[C@H]1C(=O)N[C@@H](CCCNC(=N)N)C(=O)N[C@@H](CC(C)C)C(=O)N1CCC[C@H]1C(=O)N[C@@H](CCCNC(=N)N)C(=O)N1CCC[C@H]1C(=O)N[C@@H](CCCNC(=N)N)C(=O)N[C@@H](Cc1c[nH]c2ccccc12)C(=O)N[C@@H](CCCNC(=N)N)C(=O)O` [B7-005] (H-WRIRRRWPRLPRPRWR-OH), the “cytotoxicity relative to Bac7(1-16)” value (a human cell line) is given as “did not increase cytotoxicity relative to Bac7(1-16)”, the “concentration up to which MG-63 cells remained unaffected” value ([1]; equivalent of 128 µg ml^−1, ref [35]) is given as at least 54 µM and the “concentration up to which MG-63 cells remained unaffected” value ([1]; ref [35]) is given as at least 128 µg/mL. The IC50 (HaCaT cells) was under 128 µM.
